Reference: patent US20240165127A1, “CONTRAST AGENT FOR DIAGNOSIS OF VASCULAR DISEASE CONTAINING GADOLINIUM-BASED COMPOUND AS ACTIVE INGREDIENT AND SYNTHESIS METHOD THEREFOR” (DAEGU CATHOLIC UNIVERSITY INDUSTRY ACADEMIC COOPERATION …, priority 2022, published 2024)
“And” between values parts separate entries of the source, which are not always exact repeats. Identical values can stand only once.

Columns and labels:
[1] = In vitro molar longitudinal relaxivity (r1), 9.4T MRI, RARE method; type: physicochemical; conditions: 25° C.
Procedure: (§1) To obtain quantitative information on the efficacy of the Gd-DOTA-click-SF probe and Dotarem as MRI contrast agents, the molar longitudinal relaxivities (r1) thereof were analyzed. At 25° C., 3.0T MRI was performed using the inversion recovery method, and 9.4T MRI was performed using the RARE (Rapid Acquisition with Refocused Echoes) method.

[2] = test system: elastase activity; assay: Ex vivo T1-weighted MRI, CNR and ICP/MS gadolinium content of aortas from rats with induced abdominal aortic aneurysm (AAA) and from healthy rats; design: species or system Sprague-Dawley (SD) rats; conditions: for T1-signal intensity in T1-weighted MRI: immersed at 1.28 mM for 1 hour, washed 3 times with PBS
Text: As experimental animals, 7-week-old Sprague-Dawley (SD) rats were used. The rats were maintained on a 12-hour light-dark cycle with free access to water and feed for one week of acclimatization. Then, the rats were randomly divided into a normal control group and an experimental group (aortic aneurysm group), and each group was further divided into a Dotarem-administered group and a Gd-DOTA-click-SF-administered group. Accordingly, the rats were divided into a total of 4 groups, each consisting of 4 animals.
To induce an abdominal aortic aneurysm, rats were anesthetized by inhalation with 2 to 2.5% isoflurane, and then their abdomen was incised to expose the aortic branches. Next, 300 μL of 12U porcine pancreatic elastase was perfused for 10 minutes.
After 5 weeks, the aorta with induced abdominal aortic aneurysm was harvested, immersed in Dotarem or the Gd-DOTA-click-SF of the present disclosure at 1.28 mM for 1 hour under shaking. Then, it was taken out and washed 3 times with PBS. Finally, the samples were placed in PCR tubes filled with PBS and were examined by T1-weighted MRI. The same procedure was also applied to the aorta from the healthy normal control group, which was immersed in Dotarem or the Gd-DOTA-click-SF of the present disclosure at 1.28 mM for 1 hour under shaking. Then, it was taken out and washed 3 times with PBS. Finally, the samples were placed in PCR tubes filled with PBS and were examined by T1-weighted MRI.
The CNRs of the MRI results for the four groups, identified in Example 7, were examined, and the concentrations of gadolinium were measured using ICP/MS (ICP/MS 7700, Agilent, USA).

[3] = Transmetallation kinetics: stability of Gd(III) complex in presence of Zn(II) ions, ICP/MS; type: physicochemical; conditions: 1 mM complex, 250 mM ZnCl2 in phosphate buffer, 0 to 48 hours
Procedure: In vivo, the transmetallation of the Gd complex occurs because Gd^3+ ions compete with other endogenous cations and endogenous anions that destabilize the gadolinium complex and shift the dissociation equilibrium toward its free components. For this reason, the in vitro stability of the Gd(III) complex should be investigated in the presence of Zn(II) ions. 8 μL of a solution of 250 mM ZnCl2 in phosphate buffer was added to 1.5 mL of 1 mM Gd-DOTA-click-SF complex and the mixture was stirred. Thereafter, the solution was collected at 0, 2, 4, 6, 8, 24, and 48 hours and filtered. […] To compare the stability of Gd-DOTA-click-SF with that the clinical contrast agent Dotarem, the same procedure was repeated three times.

[4] = test system: endothelial C166 cells; assay: In vitro cell viability, CCK-8 assay; type: cell-based; conditions: 0.01 to 0.1 mM, 24 hours
Procedure: The cytotoxicity of the Gd-DOTA click-SF probe was assessed against macrophage RAW264.7 cells and endothelial C166 cells using the CCK-8 assay according to the instructions provided by the manufacturer. RAW264.7 cells and endothelial C166 cells were cultured in DMEM containing 10% FBS and 1% penicillin-streptomycin (10000 U/ml). 2.5×10^4 RAW 264.7 cells and 3×10^3 C166 cells per well in 100 μL of DMEM well were seeded in 96-well plates. The cells were cultured at 37° C. for 24 hours in a humidified atmosphere containing 5% CO2, and then for comparison, each of the Gd-DOTA-click-SF probe and Dotarem was added thereto at concentrations of 0.01, 0.025, 0.05, 0.075, and 0.1 mM, followed by incubation at 37° C. for 24 hours. Thereafter, the cells were treated with 10 μl of CCK-8 solution and further cultured for 2 hours at 37° C., and the absorbance of each well was measured at 450 nm using a microplate reader.

[5] = In vitro molar longitudinal relaxivity (r1), 3.0T MRI, inversion recovery method; type: physicochemical; conditions: 25° C., concentrations 0.01, 0.02, 0.04, 0.06, 0.08, and 0.1 mM
Procedure: as §1

In the case of `CNC[C@H](O)[C@@H](O)[C@H](O)[C@H](O)CO.O=C([O-])CN1CCN(CC(=O)[O-])CCN(CC(=O)O)CCN(CC(=O)[O-])CC1.[Gd+3]` [Dotarem], the “9.4T r1 (molar longitudinal relaxivity)” value ([1]; concentrations 0.01, 0.02, 0.04, 0.06, 0.08, and 0.1 mM) is reported as 4.647 mM^−1s^−1 and 4.647^a mM^−1s^−1, the “9.4T r1 (molar longitudinal relaxivity)” value ([1]; concentrations 0.04, 0.08, 0.16, 0.32, and 0.64 mM) is reported as 5.064 mM^−1s^−1 and 5.064^b mM^−1s^−1 and the “T1-signal intensity in T1-weighted MRI” value ([2]; AAA aorta ex vivo) is reported as “did not show high signal intensity”. The “binding to the arterial wall” value ([2]; ex vivo aortas, after washing with PBS) was “very low”, the “T1-signal intensity in T1-weighted MRI” value ([2]; healthy normal aorta ex vivo) was “did not show high signal intensity” and the “stability of Gd(III) complex (kinetic inertness, transmetallation)” value [3] was “very stable in the presence of Zn(II) ions without transmetallation”. The “cell viability / cytotoxicity” value [4] was “non-cytotoxic” and the “3.0T r1 (molar longitudinal relaxivity)” value [5] was 2.105 mM^−1s^−1 and 2.211^a mM^−1s^−1.
